In patent publication US20250188085A1, “COMPOSITIONS AND METHODS FOR INHIBITION OF RAS” (THERAS, INC., priority 2022, published 2025):
Read-outs that look alike come from different tables or passages of the source.

Legend:
[1] = molecular target: T1, GTP-loaded KRAS4b (amino acids 1-169) G12C/C118S protein (Homo sapiens, UniProt P01116, C118S/G12C); test: Covalent cysteine 12 modification by MALDI-TOF MS, GTP-loaded KRAS G12C; assay type: binding; settings: 15 minutes reaction time point
T1 construct: KRAS4b (amino acids 1-169) G12C/C118S protein; made in house
Outline: (§1)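 KRAS4b 1-169 G12C/C118S loaded with GDP, GppNHp or GTP was used at 1 μM in 20 mM HEPES, 150 mM NaCl, 1 mM MgCl2, pH 7.3, and incubated with compound (5 mM DMSO stock) at room temperature in the dark. % modification at 15 min is adduct peak height over total protein peak heights by linear-mode MALDI-TOF.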

[2] = molecular target: T2, GppNHp-loaded KRAS4b (amino acids 1-169) G12C/C118S protein (Homo sapiens, UniProt P01116, C118S/G12C); test: Covalent cysteine 12 modification by MALDI-TOF MS, GppNHp-loaded KRAS G12C; assay type: binding; settings: 15 minutes reaction time point
T2 construct: KRAS4b (amino acids 1-169) G12C/C118S protein; made in house
Outline: as §1

pERK in NCI-H358 cells = test: Cell-based pERK HTRF assay; settings: 30 min incubation, read-out: pERK in NCI-H358 cell inhibition IC50
Outline: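 Cells seeded at 4×10^4/well in RPMI with 10% FBS, then next day treated for 30 min with a 9-point, 3-fold series from 75 μM top concentration at 0.25% DMSO. Lysates were read for pERK by HTRF (d2/Eu cryptate antibodies) after 4–24 h at room temperature, emission at 615 nm.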

[3] = molecular target: T3, GDP-loaded KRAS4b (amino acids 1-169) G12C/C118S protein (Homo sapiens, UniProt P01116, C118S/G12C); test: Covalent cysteine 12 modification by MALDI-TOF MS, GDP-loaded KRAS G12C; assay type: binding; settings: 15 minutes reaction time point
T3 construct: KRAS4b (amino acids 1-169) G12C/C118S protein; made in house
Outline: as §1

[4] = molecular target: T4, Avi-KRAS G12C (1-169) GppNHp/RAF1 RBD-3×FLAG (52-151) (Homo sapiens, UniProt P01116, G12C); test: Raf1 RBD-KRAS G12C-GppNHp disruption (protein:protein interaction HTRF assay); assay type: biochemical
T4 construct: Avi-KRAS G12C (1-169) GppNHp/RAF1 RBD-3×FLAG (52-151)
Outline: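 HTRF measuring disruption of 50 nM Avi-KRAS G12C (1-169) loaded with GppNHp binding RAF1 RBD-3×FLAG (52-151), in pH 7.5 Tris buffer with 5 mM MgCl2, 0.1% BSA, 10% DMSO. KRAS preincubated with compound 1 h, then RBD 1 h, then detection reagents 1 h, all at room temperature. Compound titration 30-0.02 μM; activity expressed as percent of DMSO control.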

GTP-KRAS G12C percent of modification [1]	GppNHp-KRAS G12C percent of modification [2]	IC50 (pERK in NCI-H358 cells; Homo sapiens, NCI-H358, 0.5 h)	GDP-KRAS G12C percent of modification [3]	IC50 [4]	IC50 (pERK in NCI-H358 cells)	Structure (SMILES)
A (percent of modification ≥70%)	A (percent of modification ≥70%)	≤ 100 nM	A (percent of modification ≥70%)	≤ 500 nM		C=CC(=O)N1CC[C@@H](Oc2nc(OC[C@@]34CCCN3C[C@H](F)C4)nc3c(F)c(-c4ccc(F)c5sc(N)c(C#N)c45)ncc23)[C@H]1C [Compound 73, 4-(4-(((2R,3R)-1-acryloyl-2-methylpyrrolidin-3-yl)oxy)-8-fluoro-2-(((2R,7aS)-2-fluorotetrahydro-1H-pyrrolizin-7a (5H)-yl)methoxy)pyrido[4,3-d]pyrimidin-7-yl)-2-amino-7-fluorobenzo[b]thiophene-3-carbonitrile]
A (percent of modification ≥70%)	A (percent of modification ≥70%)	≤ 100 nM	A (percent of modification ≥70%)	≤ 500 nM		C=CC(=O)N1C[C@H](Oc2nc(OC[C@@]34CCCN3C[C@H](F)C4)nc3c(F)c(-c4ccc(F)c5sc(N)c(C#N)c45)ncc23)[C@@H](F)C1 [Compound 75]
A (percent of modification ≥70%)	A (percent of modification ≥70%)	≤ 100 nM	A (percent of modification ≥70%)	≤ 500 nM		C=CC(=O)N1CC[C@@H](Oc2nc(OC[C@@]34CCCN3C[C@H](F)C4)nc3c(F)c(-c4ccc(F)c5sc(N)c(C#N)c45)ccc23)[C@H]1C [Compound 76, 4-(4-(((2R,3R)-1-acryloyl-2-methylpyrrolidin-3-yl)oxy)-8-fluoro-2-(((2R,7aS)-2-fluorotetrahydro-1H-pyrrolizin-7a (5H)-yl)methoxy)quinazolin-7-yl)-2-amino-7-fluorobenzo[b]thiophene-3-carbonitrile]
A (percent of modification ≥70%)	A (percent of modification ≥70%)	≤ 100 nM	A (percent of modification ≥70%)	≤ 500 nM		C=CC(=O)N1C[C@H](Oc2nc(OC[C@@]34CCCN3C[C@H](F)C4)nc3c(F)c(-c4ccc(F)c5sc(N)c(C#N)c45)ccc23)[C@@H](F)C1 [Compound 77]
D (percent of modification <10%)	C (10%≤modification <50%)	≤ 100 nM	C (10%≤modification <50%)	≤ 500 nM		C=CC(=O)N1CCC(Oc2nc(N3CC(N4CC5(CC5)C4)C3)nc3c(F)c(-c4ccc(F)c5sc(N)c(C#N)c45)c(C(F)(F)F)cc23)C1 (centres unmarked) [Compound 78]
A (percent of modification ≥70%)	A (percent of modification ≥70%)	≤ 100 nM	A (percent of modification ≥70%)	≤ 500 nM		C=CC(=O)N1C[C@@H](F)[C@@H](Oc2nc(OC[C@@]34CCCN3C[C@H](F)C4)nc3c(F)c(-c4ccc(F)c5sc(N)c(C#N)c45)ccc23)C1 [Compound 80]
C (10%≤modification <50%)	B (50≤percent of modification <70%)	≤ 100 nM	A (percent of modification ≥70%)	≤ 500 nM		C=CC(=O)N1C[C@@H](F)[C@@H](Oc2nc(OC[C@@]34CCCN3C[C@H](F)C4)nc3c(F)c(-c4ccc(F)c5sc(N)nc45)ccc23)C1 [Compound 82]
C (10%≤modification <50%)	B (50≤percent of modification <70%)	≤ 100 nM	A (percent of modification ≥70%)	≤ 500 nM		C=CC(=O)N1C[C@H](Oc2nc(OC[C@@]34CCCN3C[C@H](F)C4)nc3cc(-c4ccc(F)c5sc(N)c(C#N)c45)c(C(F)(F)F)nc23)C[C@H]1C [Compound 83]
C (10%≤modification <50%)	C (10%≤modification <50%)		C (10%≤modification <50%)	≤ 500 nM	≤ 100 nM	C=CC(=O)N1C[C@H](Oc2nc(OC[C@@]34CCCN3C[C@H](F)C4)nc3cc(-c4ccc(F)c5sc(N)c(C#N)c45)c(C(F)(F)F)nc23)C[C@H]1C [Compound 84]
D (percent of modification <10%)	C (10%≤modification <50%)	100 to 1000 nM	A (percent of modification ≥70%)	500 to 5000 nM		C=CC(=O)N1CC[C@@H](Oc2nc(N3CC(N4CC5(CC5)C4)C3)nc3c(F)c(-c4ccc(F)c5sc(N)c(C#N)c45)ncc23)C1 [Compound 87]
C (10%≤modification <50%)	C (10%≤modification <50%)	100 to 1000 nM	C (10%≤modification <50%)	≤ 500 nM		C=CC(=O)N1CC[C@@H](Oc2nc(OC[C@@]34CCCN3C[C@H](F)C4)nc3c(F)c(-c4ccc(F)c5sc(N)nc45)ccc23)[C@H]1C [Compound 88]
C (10%≤modification <50%)	B (50≤percent of modification <70%)	≤ 100 nM	A (percent of modification ≥70%)	≤ 500 nM		C=CC(=O)N1CC[C@@H](Oc2nc(OC[C@@]34CCCN3C[C@H](F)C4)nc3cc(-c4ccc(F)c5sc(N)c(C#N)c45)c(C(F)(F)F)nc23)[C@H]1C [Compound 91]
B (50≤percent of modification <70%)	A (percent of modification ≥70%)	≤ 100 nM	A (percent of modification ≥70%)	≤ 500 nM		C=CC(=O)N1C[C@@H](F)[C@@H](Oc2nc(OC[C@@]34CCCN3C[C@H](F)C4)nc3c(F)c(-c4ccc(F)c5sc(N)c(C#N)c45)c(Cl)cc23)C1 [Compound 93]
B (50≤percent of modification <70%)	A (percent of modification ≥70%)	≤ 100 nM	A (percent of modification ≥70%)	≤ 500 nM		C=CC(=O)N1CC[C@@H](Oc2nc(OC[C@@]34CCCN3C[C@H](F)C4)nc3c(F)c(-c4ccc(F)c5sc(N)c(C#N)c45)c(Cl)cc23)[C@H]1C [Compound 94]
A (percent of modification ≥70%)	A (percent of modification ≥70%)	≤ 100 nM	A (percent of modification ≥70%)	≤ 500 nM		C=CC(=O)N1CC[C@@H](Oc2nc(OC[C@@]34CCCN3C[C@H](F)C4)nc3c(F)c(-c4ccc(F)c5sc(N)c(C#N)c45)ccc23)[C@H]1COC [Compound 97]
C (10%≤modification <50%)	B (50≤percent of modification <70%)	100 to 1000 nM	B (50≤percent of modification <70%)	≤ 500 nM		C=CC(=O)N1CC[C@@H](Oc2nc(OC[C@@]34CCCN3C[C@H](F)C4)nc3cc(-c4ccc(F)c5sc(N)c(C#N)c45)c(C(F)(F)F)cc23)[C@H]1C [Compound 98]
B (50≤percent of modification <70%)	B (50≤percent of modification <70%)	≤ 100 nM	B (50≤percent of modification <70%)	≤ 500 nM		C=CC(=O)N1CC[C@@H](Oc2nc(OC[C@@]34CCCN3C[C@H](OC)C4)nc3c(F)c(-c4ccc(F)c5sc(N)c(C#N)c45)c(C(F)(F)F)cc23)[C@H]1C [Compound 99]
C (10%≤modification <50%)	C (10%≤modification <50%)	100 to 1000 nM	B (50≤percent of modification <70%)	≤ 500 nM		C=CC(=O)N1CC[C@@H](Oc2nc(OCC34CCCN3CCC4)nc3c(F)c(-c4ccc(F)c5sc(N)c(C#N)c45)c(C(F)(F)F)cc23)[C@H]1C [Compound 100]
C (10%≤modification <50%)	B (50≤percent of modification <70%)	≤ 100 nM	A (percent of modification ≥70%)	≤ 500 nM		C=CC(=O)N1CC[C@@H](Oc2nc(OC[C@@H]3CCCN3C)nc3c(F)c(-c4ccc(F)c5sc(N)c(C#N)c45)c(C(F)(F)F)cc23)[C@H]1C [Compound 101]
